pIC50: −log10 of the molar value.
Biological target: Glycogen synthase kinase-3 beta (Homo sapiens, UniProt P49841)
Assay: GSK-3β activity assay
Description: In a typical assay, 10 µL of test compound of different concentrations (dissolved in dimethyl sulfoxide [DMSO] and diluted with assay buffer) and 10 µL (20 ng) of enzyme were added to each well followed by 20 µL of assay buffer containing 25 µM substrate and 1 µM ATP. The final DMSO concentration in the reaction mixturewas less than 1%. After incubation at 30 °C for 30 min, the enzymatic reaction was quenched with 40 µL of Kinase-Glo reagent. Luminescence was recorded after 10 min using Infinite F200 PRO multimode reader (Tecan).

Chain of Glycogen synthase kinase-3 beta (P49841 whole entry): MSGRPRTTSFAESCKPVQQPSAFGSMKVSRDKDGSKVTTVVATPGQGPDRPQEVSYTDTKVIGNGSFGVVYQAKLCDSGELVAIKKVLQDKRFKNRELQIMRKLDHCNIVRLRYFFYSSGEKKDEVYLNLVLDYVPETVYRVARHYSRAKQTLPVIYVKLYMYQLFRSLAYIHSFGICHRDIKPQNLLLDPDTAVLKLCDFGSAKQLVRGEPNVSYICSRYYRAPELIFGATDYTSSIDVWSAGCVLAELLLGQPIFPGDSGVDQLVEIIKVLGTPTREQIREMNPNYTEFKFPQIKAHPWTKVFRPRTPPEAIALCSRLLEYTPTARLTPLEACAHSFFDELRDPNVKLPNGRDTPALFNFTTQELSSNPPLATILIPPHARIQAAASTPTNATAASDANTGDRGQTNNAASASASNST

| SMILES | pIC50 |
| --- | --- |
| Cn1c(SCc2cn(-c3ccc(Br)cc3)nn2)nc(-c2ccccc2)cc1=O [Pyrimidin-4-one-1,2,3-triazole conjugate, 3a] | 6.13 |
| Cn1c(SCc2cn(-c3ccc(F)cc3)nn2)nc(-c2ccccc2)cc1=O [Pyrimidin-4-one-1,2,3-triazole conjugate, 3b] | 6.70 |
| Cn1c(SCc2cn(-c3ccccc3Br)nn2)nc(-c2ccccc2)cc1=O [Pyrimidin-4-one-1,2,3-triazole conjugate, 3c] | 6.36 |
| Cc1ccccc1-n1cc(CSc2nc(-c3ccccc3)cc(=O)n2C)nn1 [Pyrimidin-4-one-1,2,3-triazole conjugate, 3d] | 6.52 |
| Cn1c(SCc2cn(-c3ccccc3)nn2)nc(-c2ccccc2)cc1=O [Pyrimidin-4-one-1,2,3-triazole conjugate, 3e] | 6.04 |
| Cn1c(SCc2cn(-c3ccc(C(C)(C)C)cc3)nn2)nc(-c2ccccc2)cc1=O [Pyrimidin-4-one-1,2,3-triazole conjugate, 3f] | 5.87 |
| CCc1ccc(-n2cc(CSc3nc(-c4ccccc4)cc(=O)n3C)nn2)cc1 [Pyrimidin-4-one-1,2,3-triazole conjugate, 3g] | 7.03 |
| CCOc1ccc(-n2cc(CSc3nc(-c4ccccc4)cc(=O)n3C)nn2)cc1 [Pyrimidin-4-one-1,2,3-triazole conjugate, 3h] | 5.84 |
| COc1ccccc1-n1cc(CSc2nc(-c3ccccc3)cc(=O)n2C)nn1 [Pyrimidin-4-one-1,2,3-triazole conjugate, 3i] | 5.88 |
| Cn1c(SCc2cn(-c3ccccc3F)nn2)nc(-c2ccccc2)cc1=O [Pyrimidin-4-one-1,2,3-triazole conjugate, 3j] | 6.91 |
| Cn1c(SCc2cn(-c3cccc(Cl)c3)nn2)nc(-c2ccccc2)cc1=O [Pyrimidin-4-one-1,2,3-triazole conjugate, 3k] | 6.30 |
| Cn1c(SCc2cn(-c3cccnc3)nn2)nc(-c2ccccc2)cc1=O [Pyrimidin-4-one-1,2,3-triazole conjugate, 3l] | 5.76 |
| Cn1c(SCc2cn(-c3ccccc3Cl)nn2)nc(-c2ccccc2)cc1=O [Pyrimidin-4-one-1,2,3-triazole conjugate, 3m] | 6.24 |
| Cc1ccc(-n2cc(CSc3nc(-c4ccccc4)cc(=O)n3C)nn2)cc1C [Pyrimidin-4-one-1,2,3-triazole conjugate, 3n] | 7.09 |
| COc1ccc(-n2cc(CSc3nc(-c4ccccc4)cc(=O)n3C)nn2)cc1 [Pyrimidin-4-one-1,2,3-triazole conjugate, 3o] | 5.94 |
| Cn1c(SCc2cn(-c3ccc(Cl)cc3)nn2)nc(-c2ccccc2)cc1=O [Pyrimidin-4-one-1,2,3-triazole conjugate, 3p] | 5.81 |
| Cn1c(SCc2cn(-c3ccc([N+](=O)[O-])cc3)nn2)nc(-c2ccccc2)cc1=O [Pyrimidin-4-one-1,2,3-triazole conjugate, 3q] | 6.23 |
| Cn1c(SCc2cn(-c3cccc([N+](=O)[O-])c3)nn2)nc(-c2ccccc2)cc1=O [Pyrimidin-4-one-1,2,3-triazole conjugate, 3r] | 6.82 |

Source: BindingDB's records for doi:10.1016/j.bioorg.2016.07.007 (Jamia Hamdard (Hamdard University), 2016)
